Values quoted from earlier work as cited in patent US5744472A, “1-(N'-(arylalkylaminoalkyl)) aminoisoindoles; a new class of dopamine receptor subtype specific ligands” (Neurogen Corporation, priority 1995, dated 1998).
Like-named read-outs stand apart in the source and are kept apart here.

Assays:
[1] = system: extrapyramidal side effects (EPS)
[2] = system: D1 dopamine receptor; details: background statement
[3] = system: D2 receptors; details: background statement

Question: With `CN1CCN(C2=Nc3cc(Cl)ccc3Nc3ccccc32)CC1` [clozapine] as the molecule, how does the “incidence of extrapyramidal side effects” value ([1]; compared with classical neuroleptics, background statement) read?
Answer: Its value is “lesser incidence of extrapyramidal side effects (EPS) than classical neuroleptics”.

Question: With `CCN1CCCC1CNC(=O)c1cc(S(N)(=O)=O)ccc1OC` (stereo not shown) [sulpiride] as the molecule, how does the “incidence of extrapyramidal side effects” value ([1]; in vivo) read?
Answer: The value was “lesser incidence of extrapyramidal side effects (EPS) than classical neuroleptics”.

Question: For `O=C(CCCN1CCC(O)(c2ccc(Cl)cc2)CC1)c1ccc(F)cc1` [haloperidol], which “binding at the D1 dopamine receptor” value [2] is on record?
Answer: The value was “binds relatively weakly”.

Question: What about the “binding affinity at D2 receptors” value [3] of the same molecule?
Answer: Its value is “subnanomolar range”.
